Results published in paper PMC12292504, “Improving Cofactor Promiscuity of HMG-CoA Reductase from Ruegeria pomeroyi Through Rational Design” (Biomolecules, 2025).

Biological target: T1, rpHMGR (Ruegeria pomeroyi, UniProt Q5LL64, D154K)
T1 construct: gene mvaA; N-terminal 6xHis-tag (pET28a-rpHMGR(N)), codon-optimised synthetic gene, E. coli BL21(DE3), Ni-NTA purified; homodimer only by model
Assay: NADPH consumption followed at […] nm (reductive deacylation of HMG-CoA)
Assay type: biochemical
Conditions: 0.5 mM NADPH, 0.5 mM (R,S)-HMG-CoA, 50 mM Tris-HCl, 50 mM NaCl, 5 mM DTT, pH 7.5, 30 °C

T1 sequence (Q5LL64 entry or part of it D154K): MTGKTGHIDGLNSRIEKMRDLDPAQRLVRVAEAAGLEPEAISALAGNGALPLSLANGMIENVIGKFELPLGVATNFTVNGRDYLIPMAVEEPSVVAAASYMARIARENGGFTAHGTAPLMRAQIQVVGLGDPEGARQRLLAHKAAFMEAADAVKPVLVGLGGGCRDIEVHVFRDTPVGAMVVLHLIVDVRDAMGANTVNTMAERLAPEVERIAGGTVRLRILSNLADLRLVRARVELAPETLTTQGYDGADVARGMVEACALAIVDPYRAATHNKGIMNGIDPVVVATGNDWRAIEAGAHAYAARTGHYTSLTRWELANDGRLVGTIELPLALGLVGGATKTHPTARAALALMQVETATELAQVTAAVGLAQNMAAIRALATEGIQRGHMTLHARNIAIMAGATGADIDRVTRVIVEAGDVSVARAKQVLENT

## NC(=O)C1=CN([C@@H]2O[C@H](COP(=O)(O)OP(=O)(O)OC[C@H]3O[C@@H](n4cnc5c(N)ncnc54)[C@H](OP(=O)(O)O)[C@@H]3O)[C@@H](O)[C@H]2O)C=CC1 [NADPH]
  specific activity: D154K mutant exhibited a significantly improved ability to utilize NADPH
